Structures can show the parent of a compound that is named as a salt.
Tests used:
[1] = target: T1, Recombinant CXCR4 receptor (Homo sapiens, UniProt P61073); assay: G.Validation fluorescence assay of CXCR4 receptor conformational changes in lipidic micelles SB2L4 and SB3L1; type: biochemical; details: ligand 150 μM over basal state, 5 μM labelled CXCR4, 40 min
T1 construct: host or cells: HEK-293 T cells
Excerpt: G.Validation® assay is […] biotech proprietary fluorescence based assay that assesses conformational changes of a receptor upon activation/inactivation. Recombinant CXCR4 receptor is produced and purified from HEK-293 T cells using […] proprietary mixes. Receptor is then reconstituted in detergent buffers containing lipids mimicking the lipidic composition of dendritic cells (DC) and macrophages (SB2L4 and SB3L1). Thereafter, the receptor is labelled with a non-modifying probe allowing the detection of the activation state and conformational change of the receptor upon addition of a ligand. Indeed, the probe emission spectra maximum wavelength (Amax) shifts according to activation/inactivation of the receptor. Thus, kinetic of activation/inactivation of the receptor can be followed by monitoring Amax shift after addition of a ligand over time. Emission spectra were registered for 40 minutes after addition of each ligand. […] Activation/inactivation kinetics were also followed using an exemplary compound of formula (I), i.e.

[2] = test system: Female Balb/c mice, pristane-induced lupus; assay: In vivo pristane-induced lupus mouse model, anti-dsDNA antibody titers in serum by ELISA; details: 15 mg/kg p.o. once daily, as of week 4
Description: Female Balb/c mice (6 to 8 weeks, ENVIGO, Indianapolis, USA) received a single i.p. injection with 0.5 mL of pristane (Sigma-Aldrich, St Louis, USA) to induce a lupus-like disease. That same day, once daily treatment was started (10 mL/kg), either with vehicle control (PBS) i.p., with prednisolone (Sigma-Aldrich, St Louis, USA) in PBS p.o. at a dose of 15 mg/kg (positive control), or with an exemplary compound of formula (I), i.e. Example 60, at a dose of either 3 mg/kg, 10 mg/kg or 30 mg/kg in PBS i.p. After 4, 6 and 8 weeks of dosing, sample bleeds for each mouse were collected via the orbital sinus, and immediately cold processed to sera and stored (50 μl) at −80° C. until analysis. In serum, anti-dsDNA antibody titers are determined using ELISA. Optical density was measured at 450 nm (OD450) using a microplate reader. Data are reported as anti-dsDNA Ab titers (OD), mean±S.E.M. as well as the statistical significance versus pristane-induced vehicle treated group using t-tests.

[3] = test system: peripheral blood mononuclear cells (PBMCs) from healthy donors; assay: IFN production by R848-activated PBMCs, quantified with twINNE luciferase reporter cell line; type: cell-based, human; details: Homo sapiens, PBMC; read-out: IC50 of anti-inflammatory activity (IFN production by activated PBMCs)
How it was run: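 Healthy-donor PBMCs (4.10^6/mL, RPMI/10% FBS) were pre-treated with compound, then stimulated with R848 at 5 μg/mL for 24 h. Supernatants were put on twINNE cells, which carry luciferase under five ISREs, for 24 h, and Bright-Glo luminescence was read. IC50 values came from variable-slope dose-response fits.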

[4] = test system: 129S8 mice infected with influenza A virus H3 N2 (X31); assay: In vivo immunomodulating effect (type 1 IFNs in BALF) in acute influenza inflammation model; set-up: species or system mouse; details: mouse, in vivo

T1 sequence (P61073 whole entry): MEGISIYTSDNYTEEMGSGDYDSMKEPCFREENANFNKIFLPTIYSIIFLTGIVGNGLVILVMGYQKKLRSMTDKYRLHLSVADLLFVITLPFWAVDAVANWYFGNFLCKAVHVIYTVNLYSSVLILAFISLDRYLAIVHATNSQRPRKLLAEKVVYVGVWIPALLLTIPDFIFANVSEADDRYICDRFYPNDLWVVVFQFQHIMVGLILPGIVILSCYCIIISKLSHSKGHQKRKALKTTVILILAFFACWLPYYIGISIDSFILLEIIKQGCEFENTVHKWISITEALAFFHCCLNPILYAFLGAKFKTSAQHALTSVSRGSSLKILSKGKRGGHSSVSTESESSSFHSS

Compound | melting point | other results
Cc1ccc(OCC(O)C(C)NC(C)C)c2c1CCC2 (stereo not drawn) [ICI 118 551] | – | CXCR4 structural activation/inactivation, Amax shift in fluorescence [1]: did not show any significant effect
C[C@]12C=CC(=O)C=C1CC[C@@H]1[C@@H]2[C@@H](O)C[C@@]2(C)[C@H]1CC[C@]2(O)C(=O)CO [prednisolone, reference compound] | – | anti-dsDNA Ab titers in serum vs vehicle-treated pristane-induced mice [2]: significantly reduced
Cl.c1ccc(CC2CN=C(SCc3cn4cccnc4n3)N2)cc1 (stereo not drawn) [Example 51, 2-(((5-benzyl-4,5-dihydro-1H-imidazol-2-yl)thio)methyl)imidazo[1,2-a]pyrimidine hydrochloride] | 100 to 115 °C | IC50 [3]: > 32 µM
CC(C)Cc1ccc(C(C)C(=O)O)cc1 (stereo not drawn) [ibuprofen, reference compound] | – | concentration of IFNα in BALF vs vehicle-treated infected mice [4]: significantly lower; concentration of IFNβ in BALF vs vehicle-treated infected mice [4]: significantly lower; concentration of IFNλ2/3 in BALF vs vehicle-treated infected mice [4]: significantly lower
Cl.c1ccc2c(c1)CN=C(SCCCN1CCCC1)N2 [Example 136, 2-((3-(pyrrolidin-1-yl)propyl)thio)-1,4-dihydroquinazoline dihydrochloride] | 178 to 182 °C | IC50 [3]: ≤ 10 µM
NC[C@H](O)c1ccc(O)c(O)c1 [Norepinephrine] | – | CXCR4 structural activation/inactivation, Amax shift in fluorescence [1]: did not show any significant effect
C1=C(CSC2=NCc3cccnc3N2)N2Cc3ccccc3CN=C2S1.Cl.Cl.Cl [Example 31, 3-(((1,4-dihydropyrido[2,3-d]pyrimidin-2-yl)thio)methyl)-5,10-dihydrobenzo[e]thiazolo[3,2-a][1,3]diazepine trihydrochloride] | 194 to 203 °C | IC50 [3]: ≤ 10 µM
COc1cc2nc3scc(CSC4=NCc5ccccc5N4)n3c2cc1OC.Cl [Example 97, 3-(((3,4-dihydroquinazolin-2-yl)thio)methyl)-6,7-dimethoxybenzo[4,5]imidazo[2,1-b]thiazole hydrochloride] | 238 to 240 °C | IC50 [3]: > 32 µM
Cl.c1ccc2c(c1)CN=C(SCCN1CCc3ccccc31)N2 [Example 115, 2-((2-(indolin-1-yl)ethyl)thio)-1,4-dihydroquinazoline hydrochloride] | 82 to 88 °C | IC50 [3]: 10 to 32 µM
Cl.c1ccc2c(c1)CN=C(SCCC1CCCC1)N2 [Example 197, 2-((2-cyclopentylethyl)thio)-1,4-dihydroquinazoline hydrochloride] | 42 to 50 °C | IC50 [3]: 10 to 32 µM
CC1(c2ccccc2)CN2C(CSC3=NCc4ccccc4N3)=CSC2=N1 (stereo not drawn) (as salt: hydrochloride) [Example 38, 3-(((3,4-dihydroquinazolin-2-yl)thio)methyl)-6-methyl-6-phenyl-5,6-dihydroimidazo[2,1-b]thiazole dihydrochloride] | 230 to 235 °C | –
CC1(C)CN=C(SCC2=CSC3=NCc4ccccc4CN23)N1 (as salt: hydrochloride) [Example 8, 3-(((5,5-dimethyl-4,5-dihydro-1H-imidazol-2-yl)thio)methyl)-5,10-dihydrobenzo[e]thiazolo[3,2-a][1,3]diazepine dihydrochloride] | 244 to 247 °C | –
OC1(CSC2=NCc3ccccc3N2)CSC2=N[C@H](c3ccccc3)[C@@H](c3ccccc3)N21 (relative stereo) (as salt: hydrochloride) [Example 17, trans-3-(((3,4-dihydroquinazolin-2-yl)thio)methyl)-5,6-diphenyl-2,3,5,6-tetrahydroimidazo[2,1-b]thiazol-3-ol dihydrochloride] | 195 to 200 °C | –
C1=C(CSC2=NCc3ccccc3N2)N2C(=Nc3ccccc3C2c2ccccc2)S1 (stereo not drawn) (as salt: hydrochloride) [Example 43, 3-(((3,4-dihydroquinazolin-2-yl)thio)methyl)-5-phenyl-5H-thiazolo[2,3-b]quinazoline dihydrochloride] | 184 to 190 °C | –
Fc1cccc2c1CN=C(SCC1=CSC3=NC(Cc4ccccc4)CN13)N2 (stereo not drawn) (as salt: hydrochloride) [Example 117, 6-benzyl-3-(((5-fluoro-1,4-dihydroquinazolin-2-yl)thio)methyl)-5,6-dihydroimidazo[2,1-b]thiazole dihydrochloride] | 147 to 151 °C | –
C1=C(CSC2=N[C@@H]3CCCC[C@H]3N2)N2Cc3ccccc3N=C2S1 (as salt: hydrochloride) [Example 32, 3-((((3aR,7aR)-3a,4,5,6,7,7a-hexahydro-1H-benzo[d]imidazol-2-yl)thio)methyl)-5H-thiazolo[2,3-b]quinazoline dihydrochloride] | > 250 °C | –
CN1CCN=C1SCC1=CSC2=Nc3ccccc3CN12 (as salt: hydrochloride) [Example 36, 3-(((1-methyl-4,5-dihydro-1H-imidazol-2-yl)thio)methyl)-5H-thiazolo[2,3-b]quinazoline dihydrochloride] | 247 to 248 °C | –
c1ccc(CC2CN=C(SCCN3CCCCCC3)N2)cc1 (stereo not drawn) (as salt: hydrochloride) [Example 58, 1-(2-((5-benzyl-4,5-dihydro-1H-imidazol-2-yl)thio)ethyl)azepane dihydrochloride] | 65 to 85 °C | –
COc1ccc(C[C@@H]2CN3C(CSC4=NCc5ccccc5N4)=CSC3=N2)cc1 (as salt: hydrochloride) [Example 124, (R)-3-(((1,4-dihydroquinazolin-2-yl)thio)methyl)-6-(4-methoxybenzyl)-5,6-dihydroimidazo[2,1-b]thiazole dihydrochloride] | 150 to 164 °C | –
C1=C(CSC2=NCc3ccccc3N2)N2CC(CCc3ccccc3)N=C2S1 (stereo not drawn) (as salt: hydrochloride) [Example 126, 3-(((1,4-dihydroquinazolin-2-yl)thio)methyl)-6-phenethyl-5,6-dihydroimidazo[2,1-b]thiazole dihydrochloride] | 136 to 142 °C | –
CC1(C)N=C(SCC2=CSC3=NCc4ccccc4CN23)Nc2ccccc21 (as salt: hydrochloride) [Example 21, 3-(((4,4-dimethyl-1,4-dihydroquinazolin-2-yl)thio)methyl)-5,10-dihydrobenzo[e]thiazolo[3,2-a][1,3]diazepine dihydrochloride] | > 250 °C | –
C1=C(CSC2=NCc3ccccc3N2)N2CC(Cc3cccs3)N=C2S1 (stereo not drawn) (as salt: hydrochloride) [Example 63, 3-(((3,4-dihydroquinazolin-2-yl)thio)methyl)-6-(thiophen-2-ylmethyl)-5,6-dihydroimidazo[2,1-b]thiazole dihydrochloride] | 215 to 220 °C | –
